Laboratory results taken from patent US5681691A, “Photographic element containing an improved pyrazolotriazole coupler” (Eastman Kodak Company, priority 1996, dated 1997).

Columns and labels:
[1] = Activity of image coupler in single layer film (maximum slope relative to control coupler C-1); conditions: developer pH=10, ratio to maximum slope of C-1 control, higher ratio implies higher activity
Description: (§1) The emulsion was an undyed, but chemically sensitized, 0.7 micron polymorphic silver iodobromide emulsion containing 3.5% mole of iodide. The coating structure is shown below.
(§2) Monolayer coatings were panchromatically exposed and processed in developer solutions of different pH values. A stop bath was used to eliminate any complications due to the continuing coupling reaction. The processing procedure and solution formulations are listed below.
Further single layer film elements were prepared as above, given a stepped exposure and processed (developer pH=10). The activity of an image coupler was determined by determining the maximum slope between any two adjacent steps for the coupler and dividing by the maximum slope of a corresponding control sample containing coupler C-1 processed at the same time as the sample. A higher ratio implies higher activity. The logP of the R3 fragment (a quantity also referred to as π) was calculated as described in the Detailed Description of the invention.

[2] = pH sensitivity of gamma in single layer film, normalized to C-1; conditions: developer pH 9.75, 10, 10.37, normalized by division with pH sensitivity of C-1
Source text: To measure the pH sensitivity of a single layer film, the following was done. A stepped exposure was applied to three identical strips of the film. One strip was processed with the normal C-41 process at pH of about 10. A second strip was processed in the same developer in which the pH was decreased to 9.75, while the third strip was processed in the same developer in which the pH was increased to 10.37.
as §1, §2
The D-logE Status M gamma was measured for each film and the three gammas were used as input to a least-squares regression in which gamma was the response, and the factors were pH and pH-squared in a linear model with an intercept. Before regression, the three pH values were shifted (centered) to have a mean of zero (-0.31, 0, 0.31). The coefficient of the main effect, pH, in the regression is the pH sensitivity of gamma, which was normalized by division with the pH sensitivity of the comparison coupler C-1 (Table 2) that was processed at the same time as each test coupler.

[3] = Green pH sensitivity of gamma in multilayer film (format ML-A), normalized to C-1; conditions: for pH Sensitivity: multilayer film ML-A, developer pH 9.95 to 10.15, relative normalized pH sensitivity of green gamma vs C-1
Source text: The formulas for the multilayer organic components are provided following the examples. The multilayer format used was an ISO 200 speed format (designated ML-A).
Table 4 indicates the experiment number, whether it is a comparative or inventive example, the magenta coupler used in the designated green sensitive layers and the laydown in each of those layers.
To measure the green pH sensitivity of a multilayer film, the following was done. A neutral stepped exposure was applied to nine 35-mm strips of the film. One strip was processed with the normal C-41 process. The other eight strips were processed in a 2**3 factorial design in which the pH of the developer solution was varied from 9.95 to 10.15, the bromide was varied from 0.8 g/L to 1.8 g/L, and the concentration of the developer was varied from 3.5 g/L to 5.5 g/L. The green Status M photographic D-logE gammas were measured for each film at mid-exposure, and each gamma was normalized by dividing by the average gamma for all nine strips.
The nine normalized gammas that were obtained at the nine combinations of pH, Br, and developer concentration were used as input to a least-squares regression in which normalized gamma was the response, and the factors were pH, Br, and developer concentration in a linear model with an intercept. The coefficient of pH is the sensitivity of normalized gamma to pH, and this was further normalized (divided) by the sensitivity of the comparison coupler C-1 (Table 2) that was processed at the same time as each test coupler.

magenta dye formed from coupler remaining in the film after processing ([3]; multilayer, solubility and washout of its magenta dye)	Compound	Activity [1]	pH Sensitivity [2]	pH Sensitivity [3]	Activity ([1]; listed as SL-11)
	CCCCCCCCCCCCCCCCCC(=O)N(CCCCCC(=O)O)C(C)c1n[nH]c2c(Cl)c(C)nn12 (centres unmarked) [Mag C-7]	1.04	1.32		
	CCCCCCCCCCCCCCCCCCCCCC(=O)N(c1cccc(C(=O)O)c1)C(CC)c1n[nH]c2c(Cl)c(C)nn12 (centres unmarked) [Mag-11]			0.56	
very little	CCCCCC(=O)N(c1cccc(C(=O)O)c1)C(C)c1n[nH]c2c(Cl)c(C)nn12 (centres unmarked) [Mag C-15]			0.41	
	CCCCCCCCCCCCCCCC(=O)N(c1cccc(C(=O)O)c1)C(C)c1n[nH]c2c(Cl)c(C)nn12 (centres unmarked) [Mag C-10]	1.52	0.51	0.66	
	CCCCCCCCCCCCC(Oc1ccc(C(C)(C)CC(C)(C)C)cc1)C(=O)N(c1cccc(C(=O)O)c1)C(C)c1n[nH]c2c(Cl)c(C)nn12 (centres unmarked) [Mag-6]	1.15	0.75		
	CCCCCCCCCCC(Oc1ccc(S(=O)(=O)c2ccc(O)cc2)cc1)C(=O)Nc1ccc(CCCc2n[nH]c3c(Cl)c(C)nn23)cc1 (centres unmarked) [Mag C-2]	0.51	1.39		
	CCCCCCCCCCCCCCCC(=O)N(c1cccc(CC(=O)O)c1)C(c1ccccc1)c1n[nH]c2c(Cl)c(C)nn12 (centres unmarked) [Mag C-8]	1.26	1.43		
	CCCCCCCCCCCCC(c1n[nH]c2c(Cl)c(C)nn12)N(CCCCCCCC)C(=O)CCC(=O)O (centres unmarked) [Mag C-1]	1.00	1.00	1.00	
	CCCCCCCCCCCCCCCCCC(=O)N(c1cccc(C(=O)O)c1)C(C)c1n[nH]c2c(Cl)c(C)nn12 (centres unmarked) [Mag C-11]	1.33	1.05	0.63	
	CCCCCCCCCCCCCCCC(=O)N(c1ccc(CC(=O)O)cc1)C(c1ccccc1)c1n[nH]c2c(Cl)c(C)nn12 (centres unmarked) [Mag C-4]	0.87	1.32		
	CCCCCCCCCCCCCCCCCCCC(=O)N(CCCC(=O)O)C(c1ccccc1)c1n[nH]c2c(Cl)c(C)nn12 (centres unmarked) [Mag C-12]	0.91	0.75		
	CCCCCCCCCCCCCCCCCCCCCC(=O)N(c1cccc(C(=O)O)c1)C(C)c1n[nH]c2c(Cl)c(C)nn12 (centres unmarked) [Mag-1]	1.50	0.83	0.52	
	CCCCCCCCCCCCCCCCCCCCCC(=O)N(c1cccc(C(=O)OC)c1)C(C)c1n[nH]c2c(Cl)c(C)nn12 (centres unmarked) [Mag C-14]	0.43			substantial loss of activity
	CCCCCCCCCCCCC(c1n[nH]c2c(Cl)c(C)nn12)N(C(=O)CCCCC)c1cccc(C(=O)O)c1 (centres unmarked) [Mag C-13]	1.33			
	CCCCCCCCCCCCCCCc1cccc(OC(CCCC)C(=O)N(c2cccc(C(=O)O)c2)C(C)c2n[nH]c3c(Cl)c(C)nn23)c1 (centres unmarked) [Mag-7]	1.22	0.83	0.59	
	CCCCCCCCCCCCCCCC(=O)N(Cc1ccc(C(=O)O)cc1)C(C)c1n[nH]c2c(Cl)c(C)nn12 (centres unmarked) [Mag C-5]	1.34	1.32		
